From article PMC9917099, “The Mycotoxin Patulin Inhibits the Mitochondrial Carnitine/Acylcarnitine Carrier (SLC25A20) by Interaction with Cys136 Implications for Human Health” (International Journal of Molecular Sciences, 2023)
Changes are numbered by the printed parent chain. “And” between values parts separate entries of the source, which are not always exact repeats. Equal values may be shown once.

Assays:
[1] = molecular target: T1, native mitochondrial carnitine/acylcarnitine carrier (CAC, SLC25A20) (Rattus norvegicus, UniProt P97521); test: [3H]-carnitine/carnitine antiport in proteoliposomes reconstituted with native CAC extracted from rat liver mitochondria; format: biochemical; conditions: PAT incubated 30 min, 0.1 mM [3H]carnitine 10 min, read-out: IC50 of CAC inhibition
T1 construct: the native protein extracted from rat liver mitochondria; from tissue; host or cells: rat liver mitochondria (Triton X-100 extract)
T1 sequence (P97521 1-301): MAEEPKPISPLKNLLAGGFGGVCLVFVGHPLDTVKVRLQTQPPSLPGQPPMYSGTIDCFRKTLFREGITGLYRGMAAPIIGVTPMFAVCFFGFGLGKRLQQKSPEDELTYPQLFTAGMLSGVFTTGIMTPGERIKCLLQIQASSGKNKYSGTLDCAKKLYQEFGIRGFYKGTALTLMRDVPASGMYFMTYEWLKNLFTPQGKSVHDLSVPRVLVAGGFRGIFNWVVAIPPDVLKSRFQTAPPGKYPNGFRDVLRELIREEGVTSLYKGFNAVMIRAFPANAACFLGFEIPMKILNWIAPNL
Protocol: For studying the effect of PAT on the native mitochondrial CAC, a dose–response analysis on the rat liver-extracted mitochondria was performed. Aliquots of the mitochondrial extract (0.3 mg of total proteins) were reconstituted in liposomes and incubated for 30 min with several concentrations of PAT before starting the transport assay as [^3H]-carnitine/carnitine antiport (see Materials and Methods).
Figure 1 Effect of Patulin on the native carnitine/acylcarnitine carrier (CAC). (A) Dose-response analysis of proteoliposomes reconstituted with the CAC extracted from rat liver mitochondria (0.3 mg of total proteins) and incubated with PAT at the indicated concentrations for 30 min, before measuring the transport activity by adding 0.1 mM [^3H] carnitine for 10 min as described in Materials and Methods. The percentage of residual activity compared to control, without PAT treatment, is reported. […]
(§1) For the transport assay, 550 μL of proteoliposomes were passed through a Sephadex G-75 column in order to remove the external substrate. […] After finishing the transport reaction, the external radiolabel substrate was removed by gel filtration chromatography (Sephadex G-75), and the intraliposomal radioactivity was measured by liquid scintillation. Transport was measured at 25 °C. […] Transport rates were measured in 10 min, i.e., within the initial linear range of the time course.

[2] = molecular target: T2, rat CAC C-less mutant (C23V/C58V/C89S/C136V/C155V/C283S) (Rattus norvegicus, UniProt P97521, C136V/C155V/C23V/C283S/C58V/C89S); test: Carnitine antiport in proteoliposomes, C-less CAC mutant; format: biochemical
T2 construct: made in house; host or cells: E. coli C0214 (pMW7, inclusion bodies)
T2 sequence (P97521 1-301 C23V/C58V/C89S/C136V/C155V/C283S): T1 sequence (P97521 1-301) with C23V, C58V, C89S, C136V, C155V, C283S
Protocol: To shed light on the interaction between PAT and CAC and verify if specific Cys residues were involved, transport experiments on the recombinant rat and human WT CAC and CAC’s rat Cys mutants were performed. As in the case of the native protein, transport activities were measured as [^3H]-carnitine/carnitine antiport in proteoliposomes. […] The PAT inhibition of the WT recombinant protein was only slightly greater compared to the native protein, although compounds and other molecular systems that affect the mycotoxin binding to the native CAC were absent (see above). For identifying the residues involved in the PAT interaction, site-directed Cys mutants were tested for inhibition (Figure 2). […] The choice of this last mutant was due to the proximity of C155 to C136 during some steps of the substrate translocation mechanism. […]
as §1

Compound: O=C1C=C2C(=CCOC2O)O1 (centres unmarked) [PAT, 4-hydroxy-4H-furo [3,2c] pyran-2 [6H] -one]
- IC50 [1]: 55 µM and ~50 µM
- effect on transport activity [2]: no effect
